Source: publication PMC8376734, “RNAi-mediated gene knockdown of progesterone 5β-reductases in Digitalis lanata reduces 5β-cardenolide content” (Plant Cell Reports, 2021)

Assays:
rDlP5βR1 = target: T1, rDlP5βR1 (Digitalis lanata, UniProt Q6PQJ9); assay: NADPH consumption at […] nm, spectrophotometric; type: biochemical; details: 0.2 mM NADPH, 40 °C, substrate 0.01-1.6 mM
T1 construct: recombinant in E. coli, pQE30 vector (Herl et al. 2006), His-tagged, IMAC purified

rDlP5βR2 = tested on: T2, rDlP5βR2; assay: NADPH consumption at […] nm, spectrophotometric; type: biochemical, Digitalis lanata; details: 0.2 mM NADPH, 40 °C, substrate 0.01-1.6 mM
T2 construct: gene P5βR2; recombinant in E. coli SoluBL21, pDEST17 vector, His-tagged, IMAC purified; cloned with primers deduced from D. purpurea P5βR2

T1 sequence (Q6PQJ9 whole entry): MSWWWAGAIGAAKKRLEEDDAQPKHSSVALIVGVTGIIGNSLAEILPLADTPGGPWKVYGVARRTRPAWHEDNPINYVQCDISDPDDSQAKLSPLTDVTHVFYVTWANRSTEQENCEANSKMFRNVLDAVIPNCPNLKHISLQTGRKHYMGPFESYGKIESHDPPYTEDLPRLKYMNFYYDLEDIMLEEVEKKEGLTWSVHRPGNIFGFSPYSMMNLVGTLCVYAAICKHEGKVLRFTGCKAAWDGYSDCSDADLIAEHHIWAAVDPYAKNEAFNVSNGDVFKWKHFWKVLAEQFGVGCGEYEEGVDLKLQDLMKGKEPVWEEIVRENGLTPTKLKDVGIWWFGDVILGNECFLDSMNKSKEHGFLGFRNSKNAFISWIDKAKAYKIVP

SMILES	Km (rDlP5βR1) [µM]	Km (rDlP5βR2) [µM]
C=CC(C)=O [methyl vinyl ketone]	270	210
CC(=O)[C@H]1CC[C@H]2[C@@H]3CCC4=CC(=O)CC[C@]4(C)[C@H]3CC[C@]12C [progesterone]		230
